Data set [1] deals with TAC mouse model of heart failure. In kind it is in vivo. Conditions: 10 mg/kg i.p. daily. As to the method: Male C57BL/6J mice 10-14 weeks of age were purchased from The Jackson Laboratory (Bar Harbor, Me.).
Mice were anesthetized with isofluran or ketamine/xylazine. The mice were orally intubated and placed on a Harvard volume-cycled rodent ventilator to maintain respiration during surgery. The TAC procedure was performed by tying the aortic arch between the brachiocephalic trunk (innominate artery) and the left carotid artery against a 27-gauge needle spacer with a 7-0 silk suture, followed by immediate removal of the needle. For sham surgeries, thoracotomy was performed and the aorta was surgically exposed without any further intervention. Following surgical closure of the chest, the animals were allowed to recover from anesthesia, followed by post-operative care. The animals were euthanized 12 weeks post-surgery; hearts were harvested, weighed and tibia lengths were measured.
Sterile stock solutions of vehicle only [NMP:PG:kleptose in water (10:40:50)] were similarly prepared each week and stored in aliquots at 4° C. until use. […] (to minimize precipitation), and then cooled to room temperature.
Transthoracic echocardiography was used to noninvasively quantify cardiac structural and functional changes during the progression to heart failure in the TAC mouse model. Measurements were conducted with animals under 1-3% isoflurane anesthesia using a Vevo® 2100 Imaging System with a high-frequency (18-38 MHz) probe (VisualSonics MS400) (Kohut et al., 2016, J. Cardiovasc. Ultrasound 24: 229-238). Echocardiography using color Doppler ultrasound was performed at 1 week after surgery to confirm the aortic constriction. The aortic constriction was further confirmed by conducting color Doppler and pulsed wave Dopier measurements at 12 weeks after surgery. Baseline echocardiography evaluations were performed 1-2 days prior to surgery. For these studies, parasternal long and short axis images were obtained in two-dimensional B-mode and M-mode. Additional images were obtained at regular intervals (2, 4, 6, 8, 10, 12 weeks) after surgery. To evaluate cardiac structure and function, the echocardiographic data were used to determine left ventricle (LV) end-diastolic diameter, LV end-systolic diameter, LV end-diasolic volume, LV ejection fraction, LV fractional shortening, and LV mass.
Mouse hearts were collected at 12 weeks post surgery, fixed in 10% buffered formalin, and then embedded in paraffin blocks, which were used to prepare serial 4 μm thick heart sections. To detect interstitial fibrosis, heart sections were stained with Masson's trichrome which colors collagen blue and cytoplasm red. Digital images of the slides were captured at 160× magnification using a Leica DFC290 digital camera in conjunction with a Leica MZ16F microscope. […] For each heart, 2 sections taken from the mid-ventricle were analyzed. […] Images were acquired using a FV3000 Olympus Confocal Microscope and analyzed in a blinded manner by two observers. Five field views per mid-ventricle heart section were analyzed by measuring the cross-sectional area of 100 cells per field view using ImageJ. A total of 500 cells per heart section were measured.
All data are expressed as means±SEM. Statistical significance was evaluated for comparison between 3 or more means using one-way ANOVA with Tukey-Kramer post hoc test. For the echcocardiography data, obtained prior to and at two-week intervals after surgery, statistical significance was evaluated using two-way repeated ANOVA with Bonferroni post hoc test.

The nature of data set [2]: Cell Counting Kit-8 cytotoxicity assay in H9C2 cells. The class given is cell-based. Conditions: rat. As to the method:
H9C2 cells, a rat ventricular cardiomyoblast cell line were obtained from ATCC (CRL-1446) and maintained in Dulbecco's modified Eagle's medium (DMEM) containing 10% FBS and 1× GlutaMAX. For hypertrophy studies, the cells were plated onto 4-well glass chamber slides precoated with poly-D-lysine. The maintenance medium was aspirated after 24 h and the cells were serum-starved overnight in DMEM containing 1% FBS and 1× GlutaMAX and then incubated for 48 h in fresh serum-starved medium containing isoproterenol, as indicated.
Cytotoxicity assays were conducted under the same conditions used for hypertrophy assays with NVCMs or H9C2 cells, as described elsewhere herein.
(In general: Tetrazolium dyes change colour on reduction, which living cells bring about.)

Data set [3] concerns mitochondrial CoQ-dependent respiratory complex III. Nature of the data set: Biochemical selectivity assay, respiratory complex III. More on the design: species or system mouse. Conditions: highest concentration tested 11 μM. On the procedure: Inhibitor selectivity was assessed using mouse muscle homogenate preparations that contain disrupted mitochondrial membranes, a feature that makes substrates accessible to each of the membrane-bound respiratory complexes. Spectrophotometric assays for each complex are conducted in the presence or absence of a target-specific inhibitor (FIG. 9) to correct for nonspecific substrate oxidation, as previously described (Spinazzi et al., 2012, Nature Protocols 7: 1235-1246). Thus, the activity of complex I is determined by monitoring the oxidation of NADH in the absence or presence of rotenone. Complex III activity is measured based on the rate of cytochrome C reduction observed in the presence or absence of antimycin A. The reaction catalyzed by complex II produces decylubiquinol (decylCoQH2), which rapidly reduces DCIP.

The mark [4] stands for this setting: echocardiography, TAC mice, 12 weeks.

For `COc1nc(-c2ncccc2C)cc(-c2ccc(N)cc2)c1C#N` [FC9402, 4-(4-aminophenyl)-2-methoxy-6-(3-methylpyridin-2-yl)pyridine-3-carbonitrile], the “survival after 12 weeks” value in data set [1] (TAC mice) is recorded as 100%. Moreover, the “cardiac enlargement (gross morphology, heart weight to tibia length)” value in data set [1] (TAC mice, 12 weeks) is recorded as “prevented the TAC-induced cardiac enlargement”. Also, in data set [1] (setting [4]), the “left ventricle function (ejection fraction, fractional shortening)” value is on record as “preserved left ventricle function” and the “left ventricle size (diameter, volume, mass)” value is “maintained left ventricle size”. Further, in data set [1] (lung weight/tibia length above 95% confidence interval of sham), the “mice that developed heart failure” value was 20%. Also, the CC50 (in general, the concentration at which the toxic effect on the cells reaches its halfway point) at 48 h in data set [2] was 56 ± 10 µM. In addition, the “inhibition of respiratory complex III” value in data set [3] is “did not inhibit”.

The record behind these values is patent US20220096450A1, “Compounds and Methods for Treating or Preventing Heart Failure” (DREXEL UNIVERSITY, priority 2019, published 2022).
